Test results as given in ChEMBL document CHEMBL1201862, “PubChem BioAssay data set” (2004).
Activity calls are given as the source filed them.

What was measured:
[1] = Late stage assay provider results from the probe development effort to identify inhibitors of the Plasmodium falciparum M17 Leucine Aminopeptidase (M17LAP): radiolabel-based cell-based dose response assay to identify compounds that inhibit P. falciparum growth in RBCs Set 2.; type: functional
[2] = viability loss in HepG2 hepatoma cells – cell-based, cherry-picks, set 5, cytotoxicity control, dose response (AID 1053118); type: functional
[3] = T. cruzi growth inhibition in host cells, dose response, cell-based, plate reader, dry powder, set 2 (AID 652275); type: functional
[4] = cytotoxicity in MITF-independent A375 cells – cell-based, CellTiter-Glo luminescence, dry powder, set 4, counter-screen for MITF inhibitor project, dose response (AID 624364); type: functional; details: A-375;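 further: A375 melanoma cells are MITF independent so this is a counter screen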
[5] = viability loss in MITF-independent A375 cells – cell-based, CellTiter-Glo luminescence, dry powder, set 2, counter-screen for MITF inhibitor project, dose response (AID 624489); type: functional; details: A-375;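 further: actives are compounds lowering A375 viability meaning general cytotoxicity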
[6] = Late stage assay provider results from the probe development effort to identify selective inhibitors of heat shock protein 90 (HSP90): Absorbance-based cell proliferation assay in SKBR3 cells.; type: functional; details: SK-BR-3
[7] = Late stage assay provider results from the probe development effort to identify selective inhibitors of heat shock protein 90 (HSP90): Absorbance-based cell proliferation assay in MCF7 cells.; type: functional
[8] = mouse embryonic fibroblast toxicity – cell-based, plate reader, dry powder, set 2, cytotoxicity control, dose response (AID 652280); type: functional; details: NIH3T3
[9] = inhibitors acting on PAX2 in cells – cell-based, plate reader, dry powder samples, selectivity assay for PAX8 inhibitor project, dose response (AID 743048); type: functional;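 further: HEK293 cells carrying a WT1 promoter luciferase reporter driven by expressed Pax2; potency is for inhibition of Pax2 driven reporter signal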
[10] = PAX5 cellular inhibition readout – cell-based, plate reader, dry powder samples, selectivity assay for PAX8 inhibitor project, dose response (AID 743047); type: functional;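 further: HEK293 cells carrying a Pax5 driven CD19 promoter luciferase reporter; potency of inhibitors that lower reporter luminescence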
[11] = COV434 cell viability loss – plate reader, dry powder, SA7, cytotoxicity control for PAX8 inhibitor project, dose response (AID 743145); type: functional, cell-based
[12] = PAX8-dependent cell viability loss – plate reader, dry powder, dose response (AID 743049); type: functional, cell-based
[13] = inhibition of Env-driven cell fusion – HIV entry, plate reader, dry powder, dose response (AID 687023); type: functional, cell-based
[14] = viability loss in CEM21 cells – cell-based, plate reader, dry powder, cytotoxicity control, dose response (AID 687026); type: functional
[15] = Trypanosoma cruzi growth suppression in host cells – NIH3T3 host cells, beta-gal luminescence, confirmation (AID 2044); type: functional, cell-based;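 further: intracellular parasites grown in NIH/3T3 mouse fibroblasts as host cells; luminescent beta-galactosidase reporter signal from transgenic T. cruzi replicating inside host cells; inhibitors lower the luminescence signal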
[16] = NIH3T3 cell viability loss – ATP luminescence, mouse fibroblasts, counter-screen, dose response (AID 2010); type: functional, cell-based;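 further: cells exposed to compound for about 90 hours before reading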
[17] = target: DNA repair and recombination protein RAD54-like (Homo sapiens, UniProt Q92698); assay: RAD54 Holliday junction migration blockers – biochemical, fluorescence, cherry-picked samples, dose series, confirmation (AID 651657); type: functional
[18] = target: E3 ubiquitin-protein ligase UHRF1 (Homo sapiens, UniProt Q96T88); assay: Counterscreen for inhibitors of 5-meCpG-binding domain protein 2 (MBD2): TRFRET-based biochemical high throughput dose response assay to identify inhibitors of binding of ubiquitin-like with PHD and ring finger domains 1 (UHRF1) to methylated oligonucleotide.
Chain of E3 ubiquitin-protein ligase UHRF1 (Q96T88 whole entry, the tested form may be a part): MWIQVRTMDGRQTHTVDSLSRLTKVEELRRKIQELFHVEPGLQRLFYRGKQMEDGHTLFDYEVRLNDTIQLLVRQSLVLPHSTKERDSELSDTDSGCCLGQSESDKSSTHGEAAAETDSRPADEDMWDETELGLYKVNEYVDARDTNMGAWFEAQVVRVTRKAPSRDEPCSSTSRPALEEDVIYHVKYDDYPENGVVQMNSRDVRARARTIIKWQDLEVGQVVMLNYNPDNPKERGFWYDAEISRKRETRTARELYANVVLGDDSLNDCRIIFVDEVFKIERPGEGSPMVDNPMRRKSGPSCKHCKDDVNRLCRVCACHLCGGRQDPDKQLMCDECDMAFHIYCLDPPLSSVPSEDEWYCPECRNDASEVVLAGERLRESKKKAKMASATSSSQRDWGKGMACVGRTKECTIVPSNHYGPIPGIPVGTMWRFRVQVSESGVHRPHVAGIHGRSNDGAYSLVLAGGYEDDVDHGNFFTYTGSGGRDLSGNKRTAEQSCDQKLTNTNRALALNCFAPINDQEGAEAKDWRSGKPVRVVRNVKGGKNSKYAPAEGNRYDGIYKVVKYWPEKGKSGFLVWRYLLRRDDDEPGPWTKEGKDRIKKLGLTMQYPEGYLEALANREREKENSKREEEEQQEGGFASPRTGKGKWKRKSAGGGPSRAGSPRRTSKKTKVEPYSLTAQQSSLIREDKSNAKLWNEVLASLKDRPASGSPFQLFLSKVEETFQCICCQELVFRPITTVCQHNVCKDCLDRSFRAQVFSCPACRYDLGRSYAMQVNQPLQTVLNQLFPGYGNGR

Chain of DNA repair and recombination protein RAD54-like (Q92698 whole entry, the tested form may be a part): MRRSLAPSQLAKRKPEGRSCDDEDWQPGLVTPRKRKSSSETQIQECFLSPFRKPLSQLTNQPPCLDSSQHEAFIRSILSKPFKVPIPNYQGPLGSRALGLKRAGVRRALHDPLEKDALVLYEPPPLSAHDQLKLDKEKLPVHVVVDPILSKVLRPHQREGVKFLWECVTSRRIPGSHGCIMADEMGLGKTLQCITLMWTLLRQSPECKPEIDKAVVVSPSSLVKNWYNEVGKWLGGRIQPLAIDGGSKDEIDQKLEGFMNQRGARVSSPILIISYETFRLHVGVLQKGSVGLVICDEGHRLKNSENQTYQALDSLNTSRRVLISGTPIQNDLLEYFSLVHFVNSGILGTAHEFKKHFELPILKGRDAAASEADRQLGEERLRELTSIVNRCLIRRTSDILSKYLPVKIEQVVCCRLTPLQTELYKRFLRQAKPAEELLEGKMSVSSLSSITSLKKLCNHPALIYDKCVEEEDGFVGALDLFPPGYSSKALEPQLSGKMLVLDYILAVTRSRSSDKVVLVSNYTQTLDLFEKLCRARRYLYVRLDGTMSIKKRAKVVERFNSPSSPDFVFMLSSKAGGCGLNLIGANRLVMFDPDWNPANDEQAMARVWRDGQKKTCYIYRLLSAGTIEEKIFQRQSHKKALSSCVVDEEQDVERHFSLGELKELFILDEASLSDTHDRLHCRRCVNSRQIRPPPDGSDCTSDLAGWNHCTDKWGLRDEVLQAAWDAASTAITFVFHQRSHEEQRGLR

In the case of Cc1ccc(CC(=O)NO)cc1, the IC50 [1] is reported as 16.3 µM (inactive).
In the case of N#C[C@H]1[C@@H](c2ccccc2C2=CCCCC2)[C@@H](CO)N1S(=O)(=O)c1ccccc1, the AC50 [2] is reported as > 47 µM (inactive).
With CC(c1ccc(Cl)cc1)N(C)C[C@@H]1CN(C(C)C)C(=O)c2cccc(NC(=O)c3ccncc3)c2O1 (stereo partly drawn) the AC50 [3] was 0.0548 µM (active).
In the case of CN1CCN(C2=C(NS(=O)(=O)c3ccc(Br)cc3)C(=O)c3ccccc3C2=O)CC1, the AC50 [4] is reported as > 70 µM (inactive) and the AC50 [5] is reported as > 70 µM (inactive).
With COc1ccc(N/C=C2\C(=O)OC(=O)c3ccccc32)cc1 the IC50 [6] was > 100 µM (inactive) and the IC50 [7] was > 100 µM (inactive).
With Cc1cccc(-c2ccc([C@H]3[C@H](CO)N4CCCCN(Cc5ccncc5)C[C@@H]34)cc2)c1 the AC50 [8] was 8.54 µM (active).
With N#C[C@H]1[C@@H](c2ccc(C3=CCCC3)cc2)[C@@H](CO)N1C(=O)NC1CCCCC1 the AC50 [9] was 52.1 µM (active), the AC50 [10] was > 70 µM (inactive) and the AC50 [11] was > 70 µM (inactive). For the same compound, the AC50 [12] was 61.5 µM (active).
In the case of Cc1noc(C)c1S(=O)(=O)Nc1cccc2c1O[C@H](CN(C)Cc1ccc(C(F)(F)F)cc1)[C@H](C)CN([C@@H](C)CO)C2=O, the AC50 [13] is reported as 10.6 µM (active) and the AC50 [14] is reported as > 70 µM (inactive).
For Cc1ccc2nc(Cl)c3cc(C(=O)NCCCN4CCCC4)sc3c2c1, the EC50 [15] was 1.65 µM (active), the EC50 [16] was 9.72 µM (active) and the AC50 [17] was 11.4 µM (active). The IC50 [18] was > 43.8 µM (inactive).
